Test results from PMC9223658, “New Borane-Protected Derivatives of α-Aminophosphonous Acid as Anti-Osteosarcoma Agents: ADME Analysis and Molecular Modeling, In Vitro Studies on Anti-Cancer Activities, and NEP Inhibition as a Possible Mechanism of Anti-Proliferative Activity” (International Journal of Molecular Sciences, 2022).

Legend:
Assay type in all cases: cell-based, human
[1] = system: HOS cells; experiment: Invasiveness, BME-coated transwell assay; details: 24 h
Method: The invasiveness of the HOS osteosarcoma cells was assessed after treatment with compound 4 at concentrations of 12.5, 25 and 50 µM. The assay was carried out using the Trevigen’sCultureCoat®24-well Cell Invasion Assay (R&D Systems, Minneapolis, […], USA) equipped with a Basement Membrane Extract (BME)-coated membrane (8 µm) of transwell inserts. The assay was performed according to the manufacturer’s instruction and as in the transwell migration assay described above.

[2] = system: Saos-2 cells; experiment: BrdU proliferation assay, 96 h; details: Saos-2, 60 µM, cells pre-treated with 100 µM thiorphan for 1 h, 96 h
Method: In the study on the implication of NEP in the anti-proliferative activity of compound 4, cell proliferation was determined with the BrdU assay. Cell cultures were prepared as described above. Depending on the requirements, the HOS and Saos-2 cells were treated with non-cytotoxic concentrations of the NEP inhibitor—thiorphan (1, 5, 20, 100, 200, 500 µM) or pre-treated with thiorphan (100 µM) for 1 h. In this scheme, compound 4 (HOS—25 µM; Saos-2—60 µM) was added alone or in combination with the NEP inhibitor into the cell cultures. Finally, cell proliferation was evaluated with the BrdU Cell Proliferation Assay according to the manufacturer’s instructions (Millipore, Darmstadt, Germany) after a 96-h incubation.
The results of these assays were calculated as a percent of the untreated cells (100%; control). Then, the IC50 (concentration resulting in 50% inhibition of proliferation) and CC50 (concentration resulting in a 50% decrease in viability) values were calculated from a non-linear regression (log(inhibitor) vs. normalized response-variable slope) using GraphPad Prism 5.0 (GraphPAD Software Inc., San Diego, CA, USA). The IC50 and CC50 results were presented as themean ± SD of at least three experiments. In the case of the BrdU assay, the results were presented as a percent of untreated cells (100%; control).

[3] = system: active caspase 9 in HOS cells; experiment: Active caspase 9 assay (flow cytometry); details: 72 h
Method: The level of active executor caspase 3 and initiator caspase 9 was determined to examine whether compounds 4 and 6 induced apoptosis in the HOS and Saos-2 cells. The influence of compounds 4 and 6 on HOS and Saos-2 were determined with the caspase 3 assay, whereas the influence of compound 6 on the HOS cells was investigated with the caspase 9 assay. In both assays, the osteosarcoma cells (3.0 × 10^5 cells/mL) were seeded in 6-well plates. The cells were treated with compounds 4 and 6 at concentrations of 12.5, 25, 50 µM and 20, 40, 80 µM as well as 15, 30, 60 µM and 21.25, 42.5, 85 µM for 72 h, respectively. The solutions of the compounds were prepared in a medium with 2% FBS. […] Next, floating and adherent cells were harvested and subjected to further steps of the staining procedures according to the manufacturer’s instruction. The level of active caspase 3 and caspase 9 was determined using the PE Active Caspase-3 Apoptosis Kit (BD Pharmingen^TM) and the CaspaTag^TM Caspase-9 in Situ Assay Kit (Millipore, Darmstadt, Germany), respectively. The number of stained cells (active caspase 3- or 9-positive cells) was measured using FACS Calibur, and the obtained data were analyzed using Cell Quest Pro Version 6.0. for the Macintosh operating system (BD Pharmingen™). The presented results were calculated as a percent of cells with either active caspase 3 or 9 among all the analyzed cells.

Row | Structure (SMILES) | decrease in cell invasiveness ([1]; 12.5 µM) | decrease in cell invasiveness ([1]; 25 µM) [%] | decrease in cell invasiveness ([1]; 50 µM) [%] | effect of thiorphan pretreatment on anti-proliferative properties [2] | increase in active caspase 9 vs untreated cells ([3]; 40 µM) | increase in active caspase 9 vs untreated cells ([3]; 80 µM) [%]
1 | [BH3-][P+](OC(C)C)(OC(C)C)C(Nc1ccc(Br)cc1)c1ccc([N+](=O)[O-])cc1 (stereo not drawn) [Compound 4, [1-(N-p-bromophenylamino)]-1-(p-nitrophenyl)methylphosphonousacid-borane diisopropyl ester] | approx. 53% | ~70 | ~82 | partially abolished | – | –
2 | [BH3-][P+](OC(C)C)(OC(C)C)C(Nc1ccc(C)cc1)c1ccccc1 (stereo not drawn) [Compound 6, [1-(N-p-tolylamino)]-1-phenylmethylphosphonous acid-borane diisopropyl ester] | – | – | – | – | approx. 4% | ~6
